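Each compound was tested at five concentrations against cells in 96-well plates for 48 hours. GI50 marks 50% less growth.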 Active and inactive are the calls of the source. Cut-off read from the data, not from the text of the source: active = GI50 up to about 1.1 µM and inactive = higher.
How the values were obtained:
Test in all cases: NCI anticancer screen, dose series, 48 h
DMS-273 = system: DMS-273
TK-10 = system: TK-10
EKVX = system: EKVX
A498 = system: A498
UO-31 = system: UO-31
IGROV-1 = system: IGROV-1
SNB-78 = system: SNB-78
HCT-116 = system: HCT-116
RXF 631 = system: RXF 631
ACHN = system: ACHN
OVCAR-8 = system: OVCAR-8
RPMI-8226 = system: RPMI-8226
K562 = system: K562
HOP-18 = system: HOP-18
RXF 393 = system: RXF 393
HOP-92 = system: HOP-92
CAKI-1 = system: CAKI-1
OVCAR-4 = system: OVCAR-4
M14 = system: M14
HT-29 = system: HT-29
NCI-H226 = system: NCI-H226
KM-20L2 = system: KM-20L2
COLO 205 = system: COLO 205
SK-MEL-5 = system: SK-MEL-5
OVCAR-3 = system: OVCAR-3
Malme-3M = system: Malme-3M
SF-268 = system: SF-268
U-251 = system: U-251
NCI-H522 = system: NCI-H522
NCI-H460 = system: NCI-H460
UACC-257 = system: UACC-257
SW-620 = system: SW-620
SK-OV-3 = system: SK-OV-3
HCC 2998 = system: HCC 2998
SNB-75 = system: SNB-75
SF-295 = system: SF-295
OVCAR-5 = system: OVCAR-5
KM12 = system: KM12
MOLT-4 = system: MOLT-4
A549 = system: A549
DMS-114 = system: DMS-114
M19-MEL = system: M19-MEL
UACC-62 = system: UACC-62
DLD-1 = system: DLD-1
HOP-62 = system: HOP-62
CCRF-CEM = system: CCRF-CEM
LXFL 529 = system: LXFL 529
NCI-H23 = system: NCI-H23
786-0 = system: 786-0
SR = system: SR
HCT-15 = system: HCT-15
SF-539 = system: SF-539
XF498 = system: XF498
SK-MEL-2 = system: SK-MEL-2
SN12C = system: SN12C
SNB-19 = system: SNB-19
HL-60 = system: HL-60
SK-MEL-28 = system: SK-MEL-28
LOX IMVI = system: LOX IMVI

## Cn1cnc2[nH]c(=O)[nH]c(=S)c21
DMS-273
  GI50: > 100 µM (inactive)
TK-10
  GI50: > 100 µM (inactive)
EKVX
  GI50: > 100 µM (inactive)
A498
  GI50: > 100 µM (inactive)
UO-31
  GI50: > 100 µM (inactive)
IGROV-1
  GI50: > 100 µM (inactive)
SNB-78
  GI50: > 100 µM (inactive)
HCT-116
  GI50: > 100 µM (inactive)
RXF 631
  GI50: > 100 µM (inactive)
ACHN
  GI50: > 100 µM (inactive)
OVCAR-8
  GI50: > 100 µM (inactive)
RPMI-8226
  GI50: > 100 µM (inactive)
K562
  GI50: > 100 µM (inactive)
HOP-18
  GI50: > 100 µM (inactive)
RXF 393
  GI50: > 100 µM (inactive)
HOP-92
  GI50: > 100 µM (inactive)
CAKI-1
  GI50: > 100 µM (inactive)
OVCAR-4
  GI50: > 100 µM (inactive)
M14
  GI50: > 100 µM (inactive)
HT-29
  GI50: > 100 µM (inactive)
NCI-H226
  GI50: > 100 µM (inactive)
KM-20L2
  GI50: > 100 µM (inactive)
COLO 205
  GI50: > 100 µM (inactive)
SK-MEL-5
  GI50: > 100 µM (inactive)
OVCAR-3
  GI50: > 100 µM (inactive)
Malme-3M
  GI50: > 100 µM (inactive)
SF-268
  GI50: > 100 µM (inactive)
U-251
  GI50: > 100 µM (inactive)
NCI-H522
  GI50: > 100 µM (inactive)
NCI-H460
  GI50: > 100 µM (inactive)
UACC-257
  GI50: > 100 µM (inactive)
SW-620
  GI50: > 100 µM (inactive)
SK-OV-3
  GI50: > 100 µM (inactive)
HCC 2998
  GI50: > 100 µM (inactive)
SNB-75
  GI50: > 100 µM (inactive)
SF-295
  GI50: > 100 µM (inactive)
OVCAR-5
  GI50: > 100 µM (inactive)
KM12
  GI50: > 100 µM (inactive)
MOLT-4
  GI50: > 100 µM (inactive)
A549
  GI50: > 100 µM (inactive)
DMS-114
  GI50: > 100 µM (inactive)
M19-MEL
  GI50: > 100 µM (inactive)
UACC-62
  GI50: > 100 µM (inactive)
DLD-1
  GI50: > 100 µM (inactive)
HOP-62
  GI50: > 100 µM (inactive)
CCRF-CEM
  GI50: > 100 µM (inactive)
LXFL 529
  GI50: > 100 µM (inactive)
NCI-H23
  GI50: > 100 µM (inactive)
786-0
  GI50: > 100 µM (inactive)
SR
  GI50: > 100 µM (inactive)
HCT-15
  GI50: > 100 µM
SF-539
  GI50: > 100 µM (inactive)
XF498
  GI50: > 100 µM (inactive)
SK-MEL-2
  GI50: > 100 µM (inactive)
SN12C
  GI50: > 100 µM (inactive)
SNB-19
  GI50: > 100 µM (inactive)
HL-60
  GI50: > 100 µM (inactive)

## C/C(=N\NC(=N)N)C(CN(CC(C)C)CC(C)C)C(=O)Nc1ccc(C)cc1C (stereo not given)
DMS-273
  GI50: > 100 µM (inactive)
TK-10
  GI50: > 100 µM (inactive)
SK-MEL-28
  GI50: > 100 µM (inactive)
EKVX
  GI50: 81.5 µM (inactive)
A498
  GI50: > 100 µM (inactive)
UO-31
  GI50: 54.7 µM (inactive)
IGROV-1
  GI50: > 100 µM (inactive)
SNB-78
  GI50: > 100 µM (inactive)
HCT-116
  GI50: > 100 µM (inactive)
RXF 631
  GI50: > 100 µM (inactive)
ACHN
  GI50: > 100 µM (inactive)
OVCAR-8
  GI50: > 100 µM (inactive)
K562
  GI50: > 100 µM (inactive)
HOP-18
  GI50: > 100 µM (inactive)
RXF 393
  GI50: > 100 µM (inactive)
HOP-92
  GI50: 59.2 µM (inactive)
CAKI-1
  GI50: > 100 µM (inactive)
OVCAR-4
  GI50: > 100 µM (inactive)
M14
  GI50: > 100 µM (inactive)
HT-29
  GI50: > 100 µM (inactive)
NCI-H226
  GI50: > 100 µM (inactive)
KM-20L2
  GI50: > 100 µM (inactive)
COLO 205
  GI50: > 100 µM (inactive)
SK-MEL-5
  GI50: > 100 µM (inactive)
OVCAR-3
  GI50: > 100 µM (inactive)
Malme-3M
  GI50: > 100 µM (inactive)
SF-268
  GI50: > 100 µM (inactive)
U-251
  GI50: > 100 µM (inactive)
NCI-H522
  GI50: > 100 µM (inactive)
NCI-H460
  GI50: > 100 µM (inactive)
UACC-257
  GI50: > 100 µM (inactive)
SW-620
  GI50: > 100 µM (inactive)
SK-OV-3
  GI50: > 100 µM (inactive)
HCC 2998
  GI50: > 100 µM (inactive)
SNB-75
  GI50: > 100 µM (inactive)
SF-295
  GI50: > 100 µM (inactive)
OVCAR-5
  GI50: > 100 µM (inactive)
KM12
  GI50: > 100 µM (inactive)
MOLT-4
  GI50: > 100 µM (inactive)
A549
  GI50: > 100 µM (inactive)
DMS-114
  GI50: > 100 µM (inactive)
M19-MEL
  GI50: > 100 µM (inactive)
UACC-62
  GI50: > 100 µM (inactive)
DLD-1
  GI50: > 100 µM (inactive)
HOP-62
  GI50: > 100 µM (inactive)
CCRF-CEM
  GI50: > 100 µM (inactive)
LXFL 529
  GI50: > 100 µM (inactive)
NCI-H23
  GI50: > 100 µM (inactive)
786-0
  GI50: > 100 µM (inactive)
SR
  GI50: > 100 µM (inactive)
HCT-15
  GI50: > 100 µM
SF-539
  GI50: > 100 µM (inactive)
XF498
  GI50: 59.6 µM (inactive)
LOX IMVI
  GI50: > 100 µM (inactive)
SK-MEL-2
  GI50: > 100 µM (inactive)
SN12C
  GI50: > 100 µM (inactive)
SNB-19
  GI50: > 100 µM (inactive)
HL-60
  GI50: 91.8 µM (inactive)

Reference: ChEMBL document CHEMBL1201862, “PubChem BioAssay data set” (2004)
